Assay results as given in PubChem BioAssay (NCI).
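The compound was tested at five concentrations on cells cultured in 96-well plates, with a 48-hour exposure period. GI50 is the concentration that inhibits growth by half. TGI: concentration producing complete growth inhibition.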

Key:
Experiment in all cases: inhibition of tumour cell growth, NCI panel, 48 h
A498 renal = test system: A498 renal
IGROV1 ovarian = test system: IGROV1 ovarian
OVCAR-4 ovarian = test system: OVCAR-4 ovarian
SK-MEL-5 melanoma = test system: SK-MEL-5 melanoma
SK-OV-3 ovarian = test system: SK-OV-3 ovarian
SW-620 colon = test system: SW-620 colon
UACC-257 melanoma = test system: UACC-257 melanoma
UACC-62 melanoma = test system: UACC-62 melanoma
DU-145 prostate = test system: DU-145 prostate
NCI/ADR-RES ovarian = test system: NCI/ADR-RES ovarian

| SMILES | TGI (A498 renal) [µM] | TGI (IGROV1 ovarian) | TGI (OVCAR-4 ovarian) | TGI (SK-MEL-5 melanoma) [µM] | TGI (SK-OV-3 ovarian) | TGI (SW-620 colon) | TGI (UACC-257 melanoma) | TGI (UACC-62 melanoma) | TGI (DU-145 prostate) | TGI (NCI/ADR-RES ovarian) [µM] | GI50 (DU-145 prostate) | GI50 (IGROV1 ovarian) | GI50 (NCI/ADR-RES ovarian) [µM] | GI50 (OVCAR-4 ovarian) | GI50 (SK-MEL-5 melanoma) [µM] | GI50 (SK-OV-3 ovarian) | GI50 (SW-620 colon) | GI50 (UACC-257 melanoma) | GI50 (UACC-62 melanoma) | GI50 (A498 renal) [µM] |
| --- | --- | --- | --- | --- | --- | --- | --- | --- | --- | --- | --- | --- | --- | --- | --- | --- | --- | --- | --- | --- |
| CC(C)=CC(=O)Cc1nc2ccccc2[nH]c1=O | > 100 | > 100 µM | > 100 µM | > 100 | > 100 µM | > 100 µM | > 100 µM | > 100 µM | – | – | – | – | – | – | – | – | – | – | – | – |
| O=C(Nc1ccc(C(F)(F)F)cc1[N+](=O)[O-])C(=O)C(C(=O)c1ccc2ccccc2c1)C1OC(=O)c2ccccc21 (stereo not given) | 19.7 | > 66.3 µM | > 50.4 µM | 18.8 | > 100 µM | 21.9 µM | 24 µM | 20.4 µM | – | – | – | – | – | – | – | – | – | – | – | – |
| CC1(C)OC2C(CO)OC(n3ccc(=O)[nH]c3=O)C2O1 (stereo not given) | > 100 | > 100 µM | – | > 100 | > 100 µM | > 100 µM | > 100 µM | > 100 µM | > 100 µM | > 100 | – | – | – | – | – | – | – | – | – | – |
| Cc1cc2c(cn1)C(=O)OCC2 | > 100 | > 100 µM | > 100 µM | – | > 100 µM | > 100 µM | > 100 µM | > 100 µM | – | – | – | – | – | – | – | – | – | – | – | – |
| CCOC(=O)/C(C#N)=C(O)/C(=C/c1ccccc1Cl)NC(=O)c1ccccc1 | > 100 | > 100 µM | > 100 µM | > 100 | > 100 µM | 52.2 µM | > 100 µM | > 100 µM | – | – | – | – | – | – | – | – | – | – | – | – |
| CCc1ccccc1NC(=O)CCc1nc(=S)[nH][nH]1 | > 100 | > 100 µM | > 100 µM | > 100 | > 100 µM | > 100 µM | > 100 µM | > 100 µM | – | – | – | – | – | – | – | – | – | – | – | – |
| O=C(CC(=O)Nc1ccc(Cl)cc1)NNCC(=O)Nc1nc(-c2ccccc2)cs1 | – | > 100 µM | > 100 µM | > 100 | > 100 µM | > 100 µM | – | > 100 µM | – | – | – | – | – | – | – | – | – | – | – | – |
| CCCCCC(=O)N1c2ccccc2NC2=C(C(=O)CC(c3ccc(OC)c(OC)c3)C2)C1c1ccc(C(F)(F)F)cc1 (stereo not given) | – | > 100 µM | > 100 µM | > 100 | > 100 µM | > 100 µM | > 100 µM | > 100 µM | > 100 µM | > 100 | > 100 µM | > 100 µM | > 100 | 15.8 µM | 62.8 | > 100 µM | > 100 µM | > 100 µM | 97.1 µM | – |
| Cc1cc2c(C(C)C)c(O)c(O)c3coc(/c1=c1/c(C)cc4c(C(C)C)c(=O)c(=O)c5coc1c45)c32 | 24.8 | 15.1 µM | 22.8 µM | 28.6 | 33.7 µM | 17.4 µM | 31 µM | 13.5 µM | – | – | – | – | – | – | – | – | – | – | – | – |
| O=c1c2cc(Br)ccc2oc2ccc(Br)cc12 | > 100 | > 100 µM | > 100 µM | > 100 | – | > 100 µM | > 100 µM | > 100 µM | > 100 µM | > 100 | – | – | – | – | – | – | – | – | – | – |
| CN1C(c2ccccc2)CC(=Nc2ccccc2)CC1c1ccccc1 (stereo not given) | – | 38.4 µM | 31 µM | 22.8 | 8.12 µM | 22.9 µM | 24.1 µM | – | – | – | – | – | – | – | – | – | – | – | – | – |
| OCCN(CO)CN(CN(CO)CCO)c1nc(N(CN(CO)CCO)CN(CO)CCO)nc(N(CN(CO)CCO)CN(CO)CCO)n1 | – | 5.46 ng/mL | 4.8 ng/mL | – | 4.21 ng/mL | 6.27 ng/mL | 3.21 ng/mL | 3.02 ng/mL | 78.3 ng/mL | – | 1.9 ng/mL | 1.75 ng/mL | – | 1.7 ng/mL | – | 1.26 ng/mL | 0.55 ng/mL | 1.42 ng/mL | 1.26 ng/mL | – |
| N=C(c1ccccc1)N1CCCCC1 | – | – | > 100 µM | – | – | > 100 µM | > 100 µM | – | – | – | – | – | – | – | – | – | – | – | – | – |
| COc1cc2c(cc1OC)-c1c(cnn1C1OC(COC(C)=O)C(OC(C)=O)C(OC(C)=O)C1OC(C)=O)CC2 (stereo not given) | > 100 | > 100 µM | > 100 µM | > 100 | > 100 µM | > 100 µM | > 100 µM | > 100 µM | – | – | – | – | – | – | – | – | – | – | – | – |
| C/C(=N\NC(=S)N(C)C)c1ncc[nH]1 | 16.7 | 7.71 µM | – | – | 21.8 µM | > 100 µM | 7.52 µM | 7.67 µM | – | – | – | – | – | – | – | – | – | – | – | – |
| Cn1c2ccccc2c2c(=O)n(CCCC(=O)NCC(=O)OC(=NC3CCCCC3)NC3CCCCC3)c3c(-c4ccccc4)nnn3c21 | > 100 | 33 µM | – | 31.6 | – | > 100 µM | > 100 µM | > 100 µM | > 100 µM | 33.5 | 18.4 µM | 2.84 µM | 15.6 | – | 5.98 | – | 3.76 µM | 66.4 µM | 25.8 µM | 30.6 |
| Cc1c(C(=O)/C=C/c2ccc(O)cc2)nnn1-c1ccnc2c(C(F)(F)F)cccc12 | > 100 | > 100 µM | – | 24.8 | 72.5 µM | > 100 µM | 22.9 µM | > 100 µM | > 100 µM | > 100 | 30.1 µM | 21.9 µM | 13.9 | – | 4.81 | 15.1 µM | 27.1 µM | 4.4 µM | 18.7 µM | 51 |
| COc1ccccc1NC(=O)CC(=O)n1nc(C)c(N=Nc2ccccc2F)c1C | > 100 | > 100 µM | > 100 µM | > 100 | 83.6 µM | > 100 µM | > 100 µM | > 100 µM | – | – | – | – | – | – | – | – | – | – | – | – |
| N#Cc1c(NC(=O)c2cccs2)[n+]([O-])c2ccccc2[n+]1[O-] | > 100 | – | > 100 µM | > 100 | > 100 µM | > 100 µM | > 100 µM | > 100 µM | > 100 µM | > 100 | > 100 µM | – | > 100 | > 100 µM | 39.9 | 26 µM | > 100 µM | > 100 µM | > 100 µM | > 100 |
| CCCOc1ccc(/C=C\c2cc(OC)c(OC)c(OC)c2)cc1 | > 100 | > 100 µM | > 100 µM | 40.7 | – | > 100 µM | > 100 µM | > 100 µM | – | – | – | – | – | – | – | – | – | – | – | – |
| CCCCOC(=O)/C(CC(=O)C=C(C)C)=N\NS(=O)(=O)c1ccc(C)cc1 | > 100 | > 100 µM | > 100 µM | > 100 | > 100 µM | – | > 100 µM | > 100 µM | – | – | – | – | – | – | – | – | – | – | – | – |
